ChEMBL document CHEMBL1201862, “PubChem BioAssay data set” (2004)
Activity calls are given as the source filed them. Unless noted, the calls are words filed in the database; no cut-off is given here.

Experiments:
[1] = target: UDP-galactopyranose mutase (Mycobacterium tuberculosis, UniProt P9WIQ1); test: Inhibitors of Mycobacterium tuberculosis UDP-galactopyranose mutase (UGM) enzyme Measured in Biochemical System Using Plate Reader - 2105-02_Inhibitor_Dose_CherryPick_Activity. [Related pubchem assays (depositor defined):AID504439]
Chain of UDP-galactopyranose mutase (P9WIQ1 whole entry): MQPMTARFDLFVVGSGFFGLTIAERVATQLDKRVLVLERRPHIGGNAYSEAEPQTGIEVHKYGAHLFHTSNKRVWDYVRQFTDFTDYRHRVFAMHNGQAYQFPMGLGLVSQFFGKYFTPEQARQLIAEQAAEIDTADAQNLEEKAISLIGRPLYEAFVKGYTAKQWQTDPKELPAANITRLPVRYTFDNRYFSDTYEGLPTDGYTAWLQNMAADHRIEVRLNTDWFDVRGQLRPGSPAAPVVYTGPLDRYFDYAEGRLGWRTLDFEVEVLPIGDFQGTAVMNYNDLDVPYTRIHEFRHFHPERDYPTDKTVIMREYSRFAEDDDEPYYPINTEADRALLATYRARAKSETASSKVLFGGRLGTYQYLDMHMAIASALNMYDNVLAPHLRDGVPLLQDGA

[2] = target: Intestinal-type alkaline phosphatase (Mus musculus, UniProt P24822); test: PubChem AID 488874; format: functional
Chain of Intestinal-type alkaline phosphatase (Mus musculus, UniProt P24822) (P24822 whole entry): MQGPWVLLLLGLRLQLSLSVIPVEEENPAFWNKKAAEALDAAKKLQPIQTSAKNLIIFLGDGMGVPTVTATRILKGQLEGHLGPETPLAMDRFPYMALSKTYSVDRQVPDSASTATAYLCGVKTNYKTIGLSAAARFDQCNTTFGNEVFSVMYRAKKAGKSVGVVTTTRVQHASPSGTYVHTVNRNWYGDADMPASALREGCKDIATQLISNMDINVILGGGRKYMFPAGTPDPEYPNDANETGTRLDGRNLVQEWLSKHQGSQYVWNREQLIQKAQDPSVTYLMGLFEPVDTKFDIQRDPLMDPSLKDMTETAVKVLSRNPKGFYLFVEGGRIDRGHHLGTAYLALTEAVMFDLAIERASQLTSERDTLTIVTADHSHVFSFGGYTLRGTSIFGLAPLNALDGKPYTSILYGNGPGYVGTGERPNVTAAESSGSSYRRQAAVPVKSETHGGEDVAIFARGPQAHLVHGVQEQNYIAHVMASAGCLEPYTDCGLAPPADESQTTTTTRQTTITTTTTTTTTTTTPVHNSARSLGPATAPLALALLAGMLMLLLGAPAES

[3] = target: T1, Intestinal-type alkaline phosphatase (Homo sapiens, UniProt P09923); test: inhibition of human intestinal alkaline phosphatase – biochemical, luminescent, uHTS hits, set 2, dose response (AID 488793); format: functional
T1 sequence (P09923 whole entry): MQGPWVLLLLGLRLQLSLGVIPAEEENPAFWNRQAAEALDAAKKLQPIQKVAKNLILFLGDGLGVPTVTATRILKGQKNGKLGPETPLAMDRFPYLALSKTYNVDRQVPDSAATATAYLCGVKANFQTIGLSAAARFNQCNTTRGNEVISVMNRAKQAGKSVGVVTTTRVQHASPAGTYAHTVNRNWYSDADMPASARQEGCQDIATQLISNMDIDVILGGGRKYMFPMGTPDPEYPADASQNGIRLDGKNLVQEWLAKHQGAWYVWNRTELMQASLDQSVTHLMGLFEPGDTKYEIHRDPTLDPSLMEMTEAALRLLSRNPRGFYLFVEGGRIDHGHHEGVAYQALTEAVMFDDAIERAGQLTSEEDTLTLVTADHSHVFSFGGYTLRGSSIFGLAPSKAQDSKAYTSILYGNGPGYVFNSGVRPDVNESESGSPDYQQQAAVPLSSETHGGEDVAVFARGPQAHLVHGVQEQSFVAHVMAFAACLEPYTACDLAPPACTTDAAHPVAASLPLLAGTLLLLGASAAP

[4] = target: Alkaline phosphatase, tissue-nonspecific isozyme (Homo sapiens, UniProt P05186); test: inhibition of tissue-nonspecific alkaline phosphatase – biochemical, dose response (AID 488882); format: functional
Beta-galactosidase = Beta-galactosidase (Escherichia coli, UniProt Q8VNN2); test: PubChem AID 485352; format: functional
[5] = target: T1, Intestinal-type alkaline phosphatase; test: Dose Response confirmation of uHTS hits from a small molecule inhibitors of human intestinal alkaline phosphatase via a luminescent assay. [Related pubchem assays (depositor defined):AID2544, AID2574]; format: functional
[6] = target: T2, Type-1 angiotensin II receptor (Homo sapiens, UniProt P30556); test: antagonism of angiotensin II type 1 receptor – cell-based, uHTS hits, selectivity assay for APJ receptor antagonist project, dose response (AID 463214); format: functional;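 further: antagonist potency against angiotensin II stimulated AT1 response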
T2 sequence (P30556 whole entry): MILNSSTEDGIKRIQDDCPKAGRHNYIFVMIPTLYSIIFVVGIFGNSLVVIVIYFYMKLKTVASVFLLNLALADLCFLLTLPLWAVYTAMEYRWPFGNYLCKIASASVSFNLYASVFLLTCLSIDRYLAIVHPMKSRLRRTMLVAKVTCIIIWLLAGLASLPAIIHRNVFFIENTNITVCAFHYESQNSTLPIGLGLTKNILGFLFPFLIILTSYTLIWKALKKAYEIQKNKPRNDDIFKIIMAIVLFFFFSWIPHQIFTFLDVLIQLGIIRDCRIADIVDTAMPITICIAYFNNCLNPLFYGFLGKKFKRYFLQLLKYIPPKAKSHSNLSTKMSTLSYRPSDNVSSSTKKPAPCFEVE

[7] = target: T3, Tyrosine-protein phosphatase non-receptor type 22 (Homo sapiens, UniProt Q9Y2R2); format: functional
T3 sequence (Q9Y2R2 whole entry): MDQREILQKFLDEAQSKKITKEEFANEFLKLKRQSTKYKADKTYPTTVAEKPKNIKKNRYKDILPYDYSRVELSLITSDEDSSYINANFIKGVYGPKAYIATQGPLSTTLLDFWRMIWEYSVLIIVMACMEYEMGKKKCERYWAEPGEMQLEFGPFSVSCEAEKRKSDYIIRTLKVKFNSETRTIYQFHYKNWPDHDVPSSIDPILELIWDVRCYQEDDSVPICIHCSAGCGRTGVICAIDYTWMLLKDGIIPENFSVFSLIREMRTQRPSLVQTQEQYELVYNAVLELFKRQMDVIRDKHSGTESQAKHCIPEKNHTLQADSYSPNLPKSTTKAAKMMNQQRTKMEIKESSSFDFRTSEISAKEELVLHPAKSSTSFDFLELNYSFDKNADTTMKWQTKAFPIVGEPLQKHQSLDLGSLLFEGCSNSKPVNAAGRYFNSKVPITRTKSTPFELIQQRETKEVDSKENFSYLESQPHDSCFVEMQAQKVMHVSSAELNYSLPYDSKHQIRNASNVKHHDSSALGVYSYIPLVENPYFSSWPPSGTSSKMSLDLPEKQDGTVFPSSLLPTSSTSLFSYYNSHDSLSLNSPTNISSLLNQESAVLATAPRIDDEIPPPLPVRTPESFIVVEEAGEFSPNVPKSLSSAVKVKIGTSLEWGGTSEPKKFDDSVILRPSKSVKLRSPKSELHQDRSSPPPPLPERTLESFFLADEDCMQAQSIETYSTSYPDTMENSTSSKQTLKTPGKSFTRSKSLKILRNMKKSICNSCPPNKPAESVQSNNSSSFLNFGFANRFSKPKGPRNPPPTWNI

[8] = target: T3, Tyrosine-protein phosphatase non-receptor type 22; format: functional; remark: listed apart in the source
[9] = target: T4, Tyrosine-protein phosphatase non-receptor type 7 (Homo sapiens, UniProt P35236); format: functional
T4 sequence (P35236 whole entry): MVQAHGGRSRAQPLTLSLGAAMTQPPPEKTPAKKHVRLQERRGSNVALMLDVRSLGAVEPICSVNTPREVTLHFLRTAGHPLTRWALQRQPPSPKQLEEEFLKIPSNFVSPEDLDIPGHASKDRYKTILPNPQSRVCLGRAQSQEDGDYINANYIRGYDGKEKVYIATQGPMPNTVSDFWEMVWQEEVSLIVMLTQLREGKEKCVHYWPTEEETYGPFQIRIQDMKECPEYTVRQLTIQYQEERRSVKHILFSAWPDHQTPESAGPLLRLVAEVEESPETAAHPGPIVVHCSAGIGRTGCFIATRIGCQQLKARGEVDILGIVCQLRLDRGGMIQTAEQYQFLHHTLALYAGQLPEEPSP

[10] = target: T5, Kappa-type opioid receptor (Homo sapiens, UniProt P41145); test: kappa opioid receptor blockade potency – cell-based, luminescence, set 2, SAR follow-up (AID 2495); format: functional
T5 sequence (P41145 whole entry): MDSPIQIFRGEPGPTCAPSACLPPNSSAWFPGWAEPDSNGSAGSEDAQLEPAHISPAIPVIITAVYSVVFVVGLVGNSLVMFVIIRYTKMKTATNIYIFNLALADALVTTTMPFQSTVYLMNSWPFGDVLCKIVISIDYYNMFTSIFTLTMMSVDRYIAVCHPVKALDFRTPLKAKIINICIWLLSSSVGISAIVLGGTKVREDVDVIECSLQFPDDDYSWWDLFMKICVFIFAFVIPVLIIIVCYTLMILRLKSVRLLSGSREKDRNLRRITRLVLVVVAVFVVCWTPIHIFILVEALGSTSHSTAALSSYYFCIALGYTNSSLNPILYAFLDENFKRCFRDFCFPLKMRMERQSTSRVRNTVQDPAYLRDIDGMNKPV

Mu-type opioid receptor [11] = target: T6, Mu-type opioid receptor (Homo sapiens, UniProt P35372); test: SAR Analysis of Agonists of the MOR Receptor using an Image-Based Assay - Set 2. [Related pubchem assays (depositor defined):AID1777, AID1785, AID1786, AID1966, AID2133, AID2136, AID2284, AID2285, AID2352]; format: functional
T6 sequence (P35372 whole entry): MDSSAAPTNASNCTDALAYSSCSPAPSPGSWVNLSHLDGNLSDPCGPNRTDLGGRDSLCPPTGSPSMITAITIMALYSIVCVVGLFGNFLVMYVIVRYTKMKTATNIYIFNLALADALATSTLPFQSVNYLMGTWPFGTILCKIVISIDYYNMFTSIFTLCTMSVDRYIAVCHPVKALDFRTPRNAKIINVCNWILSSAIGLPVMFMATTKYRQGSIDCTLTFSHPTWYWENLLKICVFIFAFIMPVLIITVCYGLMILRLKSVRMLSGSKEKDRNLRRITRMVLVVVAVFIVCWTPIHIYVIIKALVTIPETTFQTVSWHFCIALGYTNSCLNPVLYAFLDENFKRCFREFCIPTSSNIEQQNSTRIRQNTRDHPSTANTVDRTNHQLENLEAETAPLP

[12] = target: T5, Kappa-type opioid receptor; test: SAR analysis of Antagonists of the Kappa Opioid Receptor (KOR) using an Image-Based Assay - Set 2. [Related pubchem assays (depositor defined):AID1777, AID1785, AID1786, AID1966, AID2133, AID2136, AID2284, AID2285, AID2348]; format: functional
[13] = target: T5, Kappa-type opioid receptor; test: SAR analysis of small molecule agonists of the kappa opioid receptor via a luminescent beta-arrestin assay - Set 2. [Related pubchem assays (depositor defined):AID1777, AID1785, AID1786, AID1966, AID2133, AID2136, AID2284, AID449737]; format: functional
[14] = target: T7, Delta-type opioid receptor (Homo sapiens, UniProt P41143); test: SAR Analysis of Agonists of the DOR Receptor using an Image-Based Assay - Set 2. [Related pubchem assays (depositor defined):AID1777, AID1785, AID1786, AID1966, AID2133, AID2136, AID2284, AID2285, AID2370]; format: functional
T7 sequence (P41143 whole entry): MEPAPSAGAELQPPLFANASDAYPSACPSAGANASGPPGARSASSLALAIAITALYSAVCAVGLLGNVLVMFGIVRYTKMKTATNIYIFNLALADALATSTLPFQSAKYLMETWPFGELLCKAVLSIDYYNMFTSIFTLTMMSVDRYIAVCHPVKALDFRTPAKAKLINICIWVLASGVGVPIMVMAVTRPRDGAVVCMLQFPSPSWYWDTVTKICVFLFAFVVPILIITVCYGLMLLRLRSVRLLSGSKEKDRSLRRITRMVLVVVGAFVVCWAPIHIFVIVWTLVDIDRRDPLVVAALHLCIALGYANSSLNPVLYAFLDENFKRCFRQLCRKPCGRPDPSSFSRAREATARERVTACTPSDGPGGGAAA

[15] = target: T5, Kappa-type opioid receptor; test: SAR analysis of Agonists of the Kappa Opioid Receptor (KOR) using an Image-Based Assay - Set 2. [Related pubchem assays (depositor defined):AID1777, AID1786, AID1966, AID2133, AID2136, AID2284, AID2285, AID2359]; format: functional
Mu-type opioid receptor [16] = target: T6, Mu-type opioid receptor; test: SAR Analysis of Antagonists of the MOR Receptor using an Image-Based Assay - Set 2. [Related pubchem assays (depositor defined):AID1777, AID1785, AID1786, AID1966, AID2133, AID2136, AID2284, AID2285, AID2420]; format: functional
[17] = target: T7, Delta-type opioid receptor; test: SAR Analysis of Antagonists of the DOR Receptor using an Image-Based Assay - Set 2. [Related pubchem assays (depositor defined):AID1777, AID1785, AID1786, AID1966, AID2133, AID2136, AID2284, AID2285, AID2357]; format: functional
[18] = toxicity toward cultured mammalian cells – cell-based, plate reader, cherry-pick samples, cytotoxicity control, dose response (AID 504397); format: functional
[19] = NIH-3T3 fibroblast cytotoxicity, dose response, cytotoxicity control, cell-based, fluorescence, Alamar Blue, secondary assay (AID 2327); format: functional;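 further: NIH-3T3 mouse fibroblasts cultured with fluconazole at 8 µg/mL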
[20] = fluconazole-exposed Candida albicans growth modulators – fluorescence, retest, confirmation (AID 2467); format: functional, cell-based
[21] = target: ATP-dependent molecular chaperone HSP82 (Candida albicans (strain WO-1) (Yeast), UniProt C4YTQ8); test: steroid-induced GRE reporter decrease in yeast – S. cerevisiae, luminescence, Hsp90 inhibitor project, dose response (AID 2400); format: functional, cell-based;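 further: beta-galactosidase luminescence from glucocorticoid response element reporter as proxy for Hsp90 function; inhibitor potency where signal loss means Hsp90 inhibition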
Chain of ATP-dependent molecular chaperone HSP82 (C4YTQ8 whole entry): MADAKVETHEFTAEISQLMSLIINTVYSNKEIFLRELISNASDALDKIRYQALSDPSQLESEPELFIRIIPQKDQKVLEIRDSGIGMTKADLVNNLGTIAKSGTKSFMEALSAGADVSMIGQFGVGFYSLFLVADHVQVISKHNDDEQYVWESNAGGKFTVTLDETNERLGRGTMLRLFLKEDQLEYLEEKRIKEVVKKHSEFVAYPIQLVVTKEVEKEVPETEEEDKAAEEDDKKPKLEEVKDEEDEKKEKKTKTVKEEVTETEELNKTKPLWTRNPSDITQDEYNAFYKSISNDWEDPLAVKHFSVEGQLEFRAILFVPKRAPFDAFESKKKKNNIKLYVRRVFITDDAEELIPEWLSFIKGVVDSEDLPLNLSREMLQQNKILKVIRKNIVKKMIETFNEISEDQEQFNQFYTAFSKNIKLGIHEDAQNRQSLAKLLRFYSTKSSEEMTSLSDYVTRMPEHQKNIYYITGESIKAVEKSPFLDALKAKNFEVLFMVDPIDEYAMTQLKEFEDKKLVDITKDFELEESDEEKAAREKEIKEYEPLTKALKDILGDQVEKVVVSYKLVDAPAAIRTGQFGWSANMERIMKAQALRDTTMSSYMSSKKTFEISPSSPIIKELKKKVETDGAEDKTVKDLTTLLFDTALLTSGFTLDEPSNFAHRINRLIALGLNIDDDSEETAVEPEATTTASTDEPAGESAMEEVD

[22] = target: T8, Peroxisome proliferator-activated receptor gamma (Homo sapiens, UniProt P37231); test: competitive ligand displacement at PPARg – biochemical, TR-FRET, LanthaScreen, PPARg partial agonist project, dose response (AID 504446)
T8 sequence (P37231 whole entry): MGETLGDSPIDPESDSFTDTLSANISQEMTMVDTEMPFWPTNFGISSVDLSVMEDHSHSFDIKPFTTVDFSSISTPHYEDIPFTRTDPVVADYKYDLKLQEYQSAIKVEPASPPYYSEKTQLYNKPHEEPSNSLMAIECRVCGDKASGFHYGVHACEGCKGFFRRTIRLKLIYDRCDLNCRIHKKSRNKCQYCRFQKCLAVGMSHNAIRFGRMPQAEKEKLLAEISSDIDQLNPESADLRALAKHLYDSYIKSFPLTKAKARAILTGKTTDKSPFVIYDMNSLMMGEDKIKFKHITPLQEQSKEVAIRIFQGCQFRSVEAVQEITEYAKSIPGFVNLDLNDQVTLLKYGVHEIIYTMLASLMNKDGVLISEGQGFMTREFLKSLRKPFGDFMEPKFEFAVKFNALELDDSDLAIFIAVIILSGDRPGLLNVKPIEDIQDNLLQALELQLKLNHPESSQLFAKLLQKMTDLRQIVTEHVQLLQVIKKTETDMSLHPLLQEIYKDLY

[23] = target: T8, Peroxisome proliferator-activated receptor gamma; test: PPARg transcriptional activation, reporter cells – cell-based, luminescence, assay provider, dose response (AID 504447); format: functional
[24] = target: T8, Peroxisome proliferator-activated receptor gamma; test: competitive ligand displacement at PPARg – biochemical, fluorescence polarization, PolarScreen, PPARg partial agonist project, dose response (AID 504453)
[25] = target: T9, Serine/threonine-protein phosphatase (Candida dubliniensis (strain CD36 / CBS 7987 / NCPF 3949 / NRRLY-17841) (Yeast), UniProt B9W6M3); test: blockers of CaCl2-induced CDRE-lacZ signaling – S. cerevisiae, luminescence, secondary, dose response (AID 2388); format: functional, cell-based;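 further: yeast reporter cells carrying a calcineurin-responsive lacZ construct stimulated with calcium chloride; luminescent beta-galactosidase reporter signal in whole cells rather than isolated phosphatase activity; potency for inhibition where a drop in reporter signal means calcineurin blockade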
T9 sequence (B9W6M3 whole entry): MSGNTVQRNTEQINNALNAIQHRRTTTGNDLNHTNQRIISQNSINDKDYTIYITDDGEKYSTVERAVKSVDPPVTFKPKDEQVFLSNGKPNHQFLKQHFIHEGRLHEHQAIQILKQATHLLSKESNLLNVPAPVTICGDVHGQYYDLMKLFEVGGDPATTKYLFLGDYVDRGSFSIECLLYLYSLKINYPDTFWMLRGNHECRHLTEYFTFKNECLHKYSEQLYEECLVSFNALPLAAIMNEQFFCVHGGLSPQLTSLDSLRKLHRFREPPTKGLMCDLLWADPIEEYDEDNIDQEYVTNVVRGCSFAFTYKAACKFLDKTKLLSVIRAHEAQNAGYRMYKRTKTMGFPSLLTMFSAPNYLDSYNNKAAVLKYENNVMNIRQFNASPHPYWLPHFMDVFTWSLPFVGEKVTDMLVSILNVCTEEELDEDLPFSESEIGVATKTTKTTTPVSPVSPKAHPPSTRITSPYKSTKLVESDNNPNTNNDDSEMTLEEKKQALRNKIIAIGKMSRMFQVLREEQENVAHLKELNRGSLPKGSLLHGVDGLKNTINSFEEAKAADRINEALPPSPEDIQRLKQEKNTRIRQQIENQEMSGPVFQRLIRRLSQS

[26] = target: Voltage-dependent T-type calcium channel subunit alpha-1H (Homo sapiens, UniProt O95180); test: human CACNA1H calcium influx blockade – cell-based, synthetic library set 2, HEK293 HH8, Fluo-4, SAR follow-up (AID 493023); format: functional
[27] = target: Lysine-specific demethylase 4C (Homo sapiens, UniProt Q9H3R0); test: inhibition of JMJD2C H3K9me3 demethylation – biochemical, DELFIA europium, cherry-picked samples, dose response (AID 488835); format: functional
Chain of Lysine-specific demethylase 4C (Q9H3R0 whole entry): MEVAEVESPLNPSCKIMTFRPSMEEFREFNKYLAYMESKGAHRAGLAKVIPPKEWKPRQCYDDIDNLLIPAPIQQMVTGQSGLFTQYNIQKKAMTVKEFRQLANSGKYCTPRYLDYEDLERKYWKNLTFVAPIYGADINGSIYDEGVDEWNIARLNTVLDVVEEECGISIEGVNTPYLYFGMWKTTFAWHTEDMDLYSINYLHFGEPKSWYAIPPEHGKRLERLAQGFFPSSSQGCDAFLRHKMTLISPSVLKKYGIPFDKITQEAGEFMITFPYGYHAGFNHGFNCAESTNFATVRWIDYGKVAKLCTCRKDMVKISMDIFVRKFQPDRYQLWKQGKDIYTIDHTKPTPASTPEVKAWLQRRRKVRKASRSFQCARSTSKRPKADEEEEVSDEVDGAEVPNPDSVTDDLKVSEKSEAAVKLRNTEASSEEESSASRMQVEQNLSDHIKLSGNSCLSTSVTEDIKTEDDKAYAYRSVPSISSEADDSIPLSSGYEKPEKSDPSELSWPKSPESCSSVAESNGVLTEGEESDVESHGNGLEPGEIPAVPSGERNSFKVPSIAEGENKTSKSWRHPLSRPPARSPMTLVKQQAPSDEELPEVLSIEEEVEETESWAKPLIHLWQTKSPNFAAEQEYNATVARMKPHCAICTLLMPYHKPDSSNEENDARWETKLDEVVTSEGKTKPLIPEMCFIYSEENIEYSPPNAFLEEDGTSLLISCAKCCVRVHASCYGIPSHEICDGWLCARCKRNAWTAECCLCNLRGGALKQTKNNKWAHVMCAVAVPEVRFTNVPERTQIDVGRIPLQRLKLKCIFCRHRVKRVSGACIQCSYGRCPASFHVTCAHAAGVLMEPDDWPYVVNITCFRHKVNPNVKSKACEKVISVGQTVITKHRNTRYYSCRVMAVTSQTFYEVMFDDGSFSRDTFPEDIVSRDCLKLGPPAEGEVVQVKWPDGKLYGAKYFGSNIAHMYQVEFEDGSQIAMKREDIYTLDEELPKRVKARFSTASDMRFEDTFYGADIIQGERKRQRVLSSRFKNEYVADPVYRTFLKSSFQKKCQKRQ

Cytochrome P450 2D6 = Cytochrome P450 2D6 (Homo sapiens, UniProt P10635);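 further: CYP2D6 member of a cytochrome P450 panel assay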
Chain of Cytochrome P450 2D6 (P10635 whole entry): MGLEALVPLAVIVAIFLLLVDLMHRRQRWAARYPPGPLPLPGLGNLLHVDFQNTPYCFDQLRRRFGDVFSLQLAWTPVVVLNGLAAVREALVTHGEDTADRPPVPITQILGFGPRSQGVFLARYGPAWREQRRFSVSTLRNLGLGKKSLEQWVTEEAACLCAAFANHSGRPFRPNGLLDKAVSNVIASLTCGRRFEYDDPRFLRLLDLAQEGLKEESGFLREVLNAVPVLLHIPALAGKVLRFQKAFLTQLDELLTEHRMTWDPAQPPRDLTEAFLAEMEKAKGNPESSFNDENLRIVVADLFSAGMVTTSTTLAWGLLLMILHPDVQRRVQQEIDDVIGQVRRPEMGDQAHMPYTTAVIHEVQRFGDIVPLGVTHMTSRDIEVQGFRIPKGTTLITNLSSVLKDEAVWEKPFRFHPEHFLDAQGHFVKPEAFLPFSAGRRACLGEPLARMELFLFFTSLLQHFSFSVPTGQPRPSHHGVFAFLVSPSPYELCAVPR

CN(C)c1ccc2nc3c(=O)[nH]c(=O)nc-3n(CC(O)C(O)C(O)CO)c2c1 (centres undefined)
AC50 [1]: > 500 µM (inactive) | IC50 [2]: 30.8 µM (active) | IC50 [3]: 34 µM (active) | IC50 [4]: 33 µM (active) | EC50 (Beta-galactosidase): > 40 µM (inactive) | IC50 [5]: 14.7 µM (inactive) | IC50 [6]: 29.1 µM (not active)

COC(=O)C1=NN(C(=O)c2cccc(Cl)c2)C(O)(C(C)(C)C)C1 (centres undefined)
IC50 [7]: > 79.4 µM (inactive) | IC50 [8]: > 79.4 µM (inactive) | IC50 [9]: > 79.4 µM (inactive)

Cc1ccc(S(=O)(=O)NCc2ccc(C(=O)NCCCN(Cc3ccccc3)C(C)C)cc2)cc1
IC50 [10]: > 20 µM (inactive) | EC50 (Mu-type opioid receptor [11]): > 32 µM (inactive) | IC50 [12]: > 32 µM (inactive) | EC50 [13]: > 20 µM (inactive) | EC50 [14]: > 32 µM (inactive) | EC50 [15]: > 32 µM (inactive) | IC50 (Mu-type opioid receptor [16]): > 32 µM (inactive) | IC50 [17]: > 32 µM (inactive)

COc1ccc(CCN(C)C(=O)c2ccc(S(=O)(=O)Nc3ccccc3C)cc2)cc1OC
AC50 [18]: > 350 µM (inactive)

Cc1ccc2nc(N3C(=O)C(O)=C(C(=O)c4ccco4)C3c3ccc(C)o3)sc2c1 (centres undefined)
EC50 [19]: 67.5 µM (active) | EC50 [20]: 0.071 µM (active) | EC50 [21]: 9.58 µM (active) | IC50 [22]: 14 µM (inactive) | EC50 [23]: 26 µM (active) | IC50 [24]: 30 µM (active) | EC50 [25]: > 180 µM (inactive)

CC(C)(C)CCN1CCC[C@H](NC(=O)COc2ccc(F)cc2Cl)C1
EC50 [26]: 2.4 µM (active)

CC(=O)Nc1ccc(CN2CCN(c3cccc(C(F)(F)F)c3)CC2)cc1
AC50 [27]: 24.8 µM (active)

O=C(O)C1(C(=O)O)CCN(S(=O)(=O)c2ccccc2)CC1
AC50 (Cytochrome P450 2D6): inconclusive
